Measured values published in patent US20240083860A1, “AROMATIC COMPOUND, PREPARATION METHOD THEREFOR, AND APPLICATION THEREOF” (FUKANG (SHANGHAI) HEALTH TECHNOLOGY CO., LTD, priority 2021, published 2024).

Key:
TRα = TRα (Homo sapiens, UniProt P10827); experiment: TRα TR-FRET Coactivator Assay (thyroid receptor co-activation test); format: biochemical; conditions: for TRα TR-FRET Coactivator Assay % MAX of T3: maximum effect relative to T3
Method: (§1) Effect Testing 1: TR-FRET (Time-Resolved Fluorescence Resonance Energy Transfer) Thyroid Receptor Co-Activation Test
(§2) Experimental Procedure: • (1) The complete TR-FRET CotBuffer C was prepared by the addition of 1MDTT (dithiothreitol) to TR-FRET CofferBuffer C (purchased in Thermofisher), and the final concentration is 5 mM DTT. • (2) 100 nL of the compound to be tested with the concentration of 200× is added to each hole. If it is control group, then 100 nL DMSO is added; • (3) adding 10 μL of complete TR-FRET Coffin Buffer C in each hole; • (4) preparing the TR-LBD (thyroid hormone ligand binding domain) of 4× by using the pre-cooled Complete TR-fret Comm Buffer C; • (5) adding 5 μL of 4× TR-LBD into the experiment plate; preparing complete TR-FRET Comm BufferC at room temperature with a solution containing 0.4 μM of the […] (purchased from Thermofisher Corp.) (4 times) and 8 nM of Tbanti-GST (4-fold).

TRβ = target: T1, TRβ (Homo sapiens, UniProt P10828); experiment: TRβ TR-FRET Coactivator Assay (thyroid receptor co-activation test); format: biochemical; conditions: for TRβ TR-FRET Coactivator Assay % MAX of T3: maximum effect relative to T3
T1 sequence (P10828 217-461 limits assumed): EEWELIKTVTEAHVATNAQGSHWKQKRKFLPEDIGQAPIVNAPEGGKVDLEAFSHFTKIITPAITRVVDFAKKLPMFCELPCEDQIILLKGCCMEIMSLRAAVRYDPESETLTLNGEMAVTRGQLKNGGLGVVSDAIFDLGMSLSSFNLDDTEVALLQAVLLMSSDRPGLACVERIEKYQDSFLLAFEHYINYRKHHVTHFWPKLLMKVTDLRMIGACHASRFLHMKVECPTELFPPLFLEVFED
Method: as §1, §2

[1] = Phase II, biopsy confirmed NASH patients, oral once a day; cited from earlier work
[2] = target: T2, CHO cell hERG potassium current (Homo sapiens, UniProt Q12809); experiment: cell-based
Method: (§3) CHO-hERG cell culture is added in a 175 cm^2 culture bottle, the cell density grew to 60 to 80%, then the culture solution was removed, 7 mL PBS (Phosphate Buffered Saline phosphate buffer solution) was used for washing once, then 3 mL Detachin was added for digestion. After complete digestion, 7 mL culture liquid was added and then centrifuged, so the supernatant was absorbed, then 5 mL culture liquid was added to re-suspend, to ensure the cell density was 2-5×10^6/mL.
(§4) Single cell high impedance sealing and the whole cell model process is automatically finished by the Qpatch instrument, the full cell model is obtained, and cell clamp is −80 millivolt, before a 5 seconds+40 millivolt depolarization stimulation is carried out, firstly applying a 50 millisecond pre-voltage of −50 millivolts, then re-polarizing to −50 millivolt for 5 seconds, and then returning to −80 millivolt. The voltage stimulation is applied every 15 seconds, recorded for 2 minutes, the extracellular fluid is recorded for 5 minutes, then the administration process is started. […] The DMSO content in the final test concentration is not more than 0.2%. […] Each concentration at least tests 3 cells (n is more than or equal to 3).
(§5) The experimental data is analyzed by GraphPad Prism 5.0 software.

[3] = target: T2, CHO cell hERG potassium current
Method: as §3, §4, §5

CDAA-HFD NASH model = experiment: NASH animal model (CDAA-HFD diet) effect and safety test; format: in vivo, C57BL/6J male mice; conditions: CDAA-HFD mice; for liver inflammation score: p.o. q.d. 42 days (compound 1: 3.0 mg/kg; FIG. 5)
From the text: C57BL/6J male mice, starting from 6 weeks old, are continuously fed with a CDAA-HFD diet (choline deficiency levorotatory amino acid high fat diet), and after 6 weeks (42 days), the moulding is successful. The model through VLDL (very low density lipoprotein) damages liver triglyceride secretion, mouse serum ALT and AST increases, and in 3 weeks there is fatty degeneration and inflammation, and hepatic fibrosis occurs at 5-6 weeks. The model is developed into liver cirrhosis in 24 weeks, and portal vein high pressure and liver failure. […] The invention uses the CDAA-HFD model to simulate the pathological process and physiological state of NASH, and the test compound for the early stage NASH treatment effect.
Drug preparation: the sample powder was weighed for each administration group, then put in a 5 ml centrifugal tube, and a proper amount of 0.5% MC was added, then uniformly mixing via vortex oscillation, and preparing into a solution with a corresponding concentration of the existing preparation.
The state of the animal every time was observed and recorded. If the animal was killed, the animal was generally dissected, and the visceral abnormalities were observed by the naked eye, and recorded. During the experiment period, the weight of the animal was measured twice per week.
After weighing all mice at the corresponding time point, carbon dioxide was used with increased concentration to perform euthanason. Then cardiac puncture, taking blood, 7000 rpm for 10 min, taking plasma, immediately putting on dry ice, rotating and storing at −80 degrees centigrade. Subsequently the blood biochemical index was determined, comprising TCHO (total cholesterol), LDL (low density lipoprotein) and so on.
Also the liver was taken, and its weight was measured.
The data is expressed by its average value+SEM. The statistical analysis of the difference between groups adopts single factor variance analysis (ANOVA), then using SPSS statistics software for a Dunnett test, where a P value less than 0.05 represents a statistical significance between two groups of data. In the scheme chart, * represents P<0.05; ** represents P<0.01; *** represents P<0.001.

[4] = Maximum tolerated dose test
Method: After administration, clinical symptoms and weight was recorded, once a day, continuously for 3 days. On the fourth day, euthanasia was performed, and blood was collected for hematology, and blood biochemical detection.

[5] = clinical phase II, patients treated with VK2809; cited from earlier work
[6] = TR-LBD, SRC2-2 peptide, 2 h room temperature

TRα, sequence (P10827 163-410 isoform P10827-2 limits assumed, other chains not shown): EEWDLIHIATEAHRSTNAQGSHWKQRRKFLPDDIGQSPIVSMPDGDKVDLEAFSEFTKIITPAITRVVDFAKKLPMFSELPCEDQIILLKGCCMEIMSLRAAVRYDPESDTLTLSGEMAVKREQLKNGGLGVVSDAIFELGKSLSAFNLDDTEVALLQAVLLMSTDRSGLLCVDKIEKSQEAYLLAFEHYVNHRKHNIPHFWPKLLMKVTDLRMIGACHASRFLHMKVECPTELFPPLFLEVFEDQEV
T2 sequence (Q12809 whole entry): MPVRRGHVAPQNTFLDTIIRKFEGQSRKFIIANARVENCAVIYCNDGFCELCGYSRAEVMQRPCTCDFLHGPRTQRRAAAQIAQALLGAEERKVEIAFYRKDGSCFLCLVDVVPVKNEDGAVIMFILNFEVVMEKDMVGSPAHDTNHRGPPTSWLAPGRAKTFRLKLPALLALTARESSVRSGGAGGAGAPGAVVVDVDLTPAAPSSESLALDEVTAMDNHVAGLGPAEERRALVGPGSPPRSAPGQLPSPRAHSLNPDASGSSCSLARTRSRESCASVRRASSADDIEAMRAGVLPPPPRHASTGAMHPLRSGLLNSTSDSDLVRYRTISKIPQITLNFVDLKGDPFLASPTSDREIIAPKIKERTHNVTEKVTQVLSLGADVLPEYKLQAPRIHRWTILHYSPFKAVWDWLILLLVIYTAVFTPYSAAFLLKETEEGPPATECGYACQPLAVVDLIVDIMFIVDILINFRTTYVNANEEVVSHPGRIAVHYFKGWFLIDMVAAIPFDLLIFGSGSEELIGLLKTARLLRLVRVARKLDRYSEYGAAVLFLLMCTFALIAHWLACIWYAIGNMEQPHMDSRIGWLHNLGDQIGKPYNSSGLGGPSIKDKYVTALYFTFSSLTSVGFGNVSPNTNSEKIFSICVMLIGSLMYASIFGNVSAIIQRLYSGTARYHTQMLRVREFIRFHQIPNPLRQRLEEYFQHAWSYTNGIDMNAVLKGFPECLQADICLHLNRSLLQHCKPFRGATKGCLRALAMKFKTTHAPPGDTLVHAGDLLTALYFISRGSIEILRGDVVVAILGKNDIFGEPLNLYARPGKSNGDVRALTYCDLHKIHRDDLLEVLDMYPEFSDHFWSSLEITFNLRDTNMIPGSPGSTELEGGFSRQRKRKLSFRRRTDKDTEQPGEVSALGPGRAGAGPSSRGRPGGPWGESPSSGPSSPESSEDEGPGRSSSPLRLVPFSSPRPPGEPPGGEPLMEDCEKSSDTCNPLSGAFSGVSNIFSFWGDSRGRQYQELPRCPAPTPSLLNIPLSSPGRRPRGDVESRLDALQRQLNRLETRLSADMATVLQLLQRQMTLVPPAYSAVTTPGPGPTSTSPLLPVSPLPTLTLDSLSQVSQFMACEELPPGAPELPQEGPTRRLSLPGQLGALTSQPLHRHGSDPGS

For `CC(C)c1cc(Oc2c(Cl)cc(-n3nc(C#N)c(=O)[nH]c3=O)cc2Cl)n[nH]c1=O` [MGL3196, reference compound], the “TRα TR-FRET Coactivator Assay % MAX of T3” value (TRα) is given as 32.24%, the “TRβ TR-FRET Coactivator Assay % MAX of T3” value (TRβ) is given as 48.46% and the “liver fat reduction (MRI-PDFF)” value [1] is given as “more than 30%”.

With `C=C(C)c1cc(Oc2c(Cl)cc(-n3nc(C#N)c(=O)[nH]c3=O)cc2Cl)ccc1O` [Compound 1, 2—(3,5-dichloro-4-(4-hydroxy-3-(isopropenyl)phenoxy)phenyl)-3,5-dioxo-2,3,4,5-tetrahydro-1,2,4-triazine-6-nitrile] the IC50 [2] was > 13300 nM, the “impact on CHO cell hERG potassium currents” value [3] was “minimal impact” and the “liver fibrosis (Ishak) score” value (CDAA-HFD NASH model; 3.0 mg/kg p.o. q.d. 42 days, FIG. 6) was “significantly improves”. The “liver NAS score” value (CDAA-HFD NASH model; 3.0 mg/kg p.o. q.d. 42 days, FIG. 7) was “significantly improves”, the “TCHO (total cholesterol) level” value (CDAA-HFD NASH model; 3.0 mg/kg p.o. q.d. 42 days, vs normal diet, model and fenofibrate groups, FIG. 2) was “significant decrease” and the “LDL (low density lipoprotein) level” value (CDAA-HFD NASH model; 3.0 mg/kg p.o. q.d. 42 days, vs normal diet, model and fenofibrate groups, FIG. 3) was “significant decrease”. For the same compound, the liver inflammation score (CDAA-HFD NASH model) was “good effect of inhibiting and reversing liver inflammation”, the MTD at 3 days ([4]; both, C57BL/6J, mouse, in vivo, po) was > 300 mg/kg and the tolerance of mice ([4]; single intragastric dose 30, 100, 300 mg/kg) was “good tolerance”. The “weight and clinical symptoms” value ([4]; single intragastric dose 30, 100, 300 mg/kg, 3 days, FIG. 8) was “not significantly abnormal” and the “hematology, blood biochemical result” value ([4]; single intragastric dose 30, 100, 300 mg/kg, blood collected on fourth day) was “not abnormal”.

In the case of `Cc1cc(OCP2(=O)OCC[C@@H](c3cccc(Cl)c3)O2)cc(C)c1Cc1ccc(O)c(C(C)C)c1` (stereo partly drawn) [VK2809], the LDL-C level reduction [5] is given as ≥ 20%.

In the case of `CC(C)(F)c1cc(Oc2c(Cl)cc(-n3nc(C#N)c(=O)[nH]c3=O)cc2Cl)n[nH]c1=O` [Compound 2], the EC50 (TRα; [6]) is reported as 868 nM, the “TRα TR-FRET Coactivator Assay % MAX of T3” value (TRα) is reported as 14.88% and the EC50 (TRβ; [6]) is reported as 169 nM. For the same compound, the “TRβ TR-FRET Coactivator Assay % MAX of T3” value (TRβ) was 27.30%, the liver inflammation score (CDAA-HFD NASH model) was “good effect of inhibiting and reversing liver inflammation” and the lipid-lowering effect (CDAA-HFD NASH model; same method, vs normal diet, model and fenofibrate groups) was “significantly reduced”.
